Earlier results as cited in patent US6048869A, “Tricyclic compounds” (Merck & Co., Inc., priority 1999, dated 2000).

Assays:
5α-reductase 1 = conditions: isozyme predominating in sebaceous glands of facial and skin tissue; Harris et al. 1992

For CC(C)(C)NC(=O)[C@H]1CC[C@H]2[C@@H]3CC[C@H]4NC(=O)C=C[C@]4(C)[C@H]3CC[C@]12C [Finasteride, 17,-(N-tert-butylcarbamoyl)-3-oxo-4-aza-5 α-androst-1-ene-3-one], the “sensitivity of type 1 5α-reductase to finasteride” value (5α-reductase 1) is listed as “relatively insensitive”, the “inhibition of the human prostate enzyme” value (5α-reductase 2; human prostate enzyme) is listed as “potent inhibitor” and the “inhibition of type 2 5α-reductase” value (5α-reductase 2; isozyme predominating in the prostate) is listed as “potently inhibited”.
